In patent publication US20240101566A1, “TRICYCLIC UBIQUITIN SPECIFIC PROTEASE 1 INHIBITOR AND USE THEREOF” (SHANDONG XUANZHU PHARMA CO., LTD., priority 2021, published 2024):

Columns and labels:
[1] = target: Recombinant Human His6-USP1/His6-UAF1 Complex Protein (Homo sapiens (Human), UniProt O94782); test: In-vitro enzymatic activity on USP1, first experimental method (Ub-Rho substrate, 15 min incubation); format: biochemical; conditions: incubation at room temperature 15 minutes, read-out: Inhibitory activities on USP-1, IC50
Sequence of Recombinant Human His6-USP1/His6-UAF1 Complex Protein (O94782 whole entry): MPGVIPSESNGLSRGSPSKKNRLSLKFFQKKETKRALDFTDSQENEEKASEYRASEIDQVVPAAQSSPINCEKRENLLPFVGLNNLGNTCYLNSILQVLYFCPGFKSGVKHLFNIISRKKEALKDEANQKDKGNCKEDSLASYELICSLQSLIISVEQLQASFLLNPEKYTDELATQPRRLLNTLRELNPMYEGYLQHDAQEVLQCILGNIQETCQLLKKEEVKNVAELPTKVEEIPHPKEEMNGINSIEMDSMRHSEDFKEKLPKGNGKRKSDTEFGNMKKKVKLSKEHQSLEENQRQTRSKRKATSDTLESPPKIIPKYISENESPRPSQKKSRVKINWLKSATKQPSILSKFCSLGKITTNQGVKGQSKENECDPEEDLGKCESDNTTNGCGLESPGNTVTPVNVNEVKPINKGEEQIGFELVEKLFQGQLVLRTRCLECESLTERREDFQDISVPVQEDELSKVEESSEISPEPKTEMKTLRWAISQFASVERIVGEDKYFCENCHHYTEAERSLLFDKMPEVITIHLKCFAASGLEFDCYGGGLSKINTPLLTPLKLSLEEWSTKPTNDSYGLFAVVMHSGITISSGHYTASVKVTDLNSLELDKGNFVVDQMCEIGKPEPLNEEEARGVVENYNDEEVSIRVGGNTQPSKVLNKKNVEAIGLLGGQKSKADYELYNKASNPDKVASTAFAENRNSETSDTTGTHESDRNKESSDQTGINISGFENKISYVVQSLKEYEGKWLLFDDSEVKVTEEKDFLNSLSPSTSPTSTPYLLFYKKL
Sequence of Recombinant Human His6-USP1/His6-UAF1 Complex Protein (Q8TAF3 whole entry partner): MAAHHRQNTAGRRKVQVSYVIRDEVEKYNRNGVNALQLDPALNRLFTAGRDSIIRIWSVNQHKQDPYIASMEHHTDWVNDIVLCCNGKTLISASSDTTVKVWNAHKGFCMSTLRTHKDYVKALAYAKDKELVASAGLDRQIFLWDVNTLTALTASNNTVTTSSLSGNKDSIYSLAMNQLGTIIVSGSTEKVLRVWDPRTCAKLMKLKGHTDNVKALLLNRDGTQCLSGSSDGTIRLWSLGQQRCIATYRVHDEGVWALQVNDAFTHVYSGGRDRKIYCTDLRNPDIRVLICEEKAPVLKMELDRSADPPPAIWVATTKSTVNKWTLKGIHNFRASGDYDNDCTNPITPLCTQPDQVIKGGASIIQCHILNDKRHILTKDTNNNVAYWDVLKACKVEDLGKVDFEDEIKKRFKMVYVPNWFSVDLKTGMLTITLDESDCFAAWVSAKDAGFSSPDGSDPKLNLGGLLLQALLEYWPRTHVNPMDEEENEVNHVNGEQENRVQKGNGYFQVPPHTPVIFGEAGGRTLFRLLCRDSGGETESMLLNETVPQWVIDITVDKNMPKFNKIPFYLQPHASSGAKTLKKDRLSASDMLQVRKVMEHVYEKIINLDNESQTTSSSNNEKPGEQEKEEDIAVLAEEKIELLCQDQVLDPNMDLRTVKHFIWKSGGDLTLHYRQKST
Description: Experimental Example 1 In-vitro Enzymatic Activities of Compounds of the Present Disclosure
First Experimental Method:
1) The compounds of the present disclosure were prepared to 10 mM with DMSO, and used as test stock solutions.
2) The stock solutions of the compounds of the present disclosure were diluted in a 4-fold gradient for 10 concentrations, with a maximum concentration of 10 mM.
3) The diluted compounds of the present disclosure were respectively transferred to 384-well plates (diluted by 1,000 folds) by Echo550, 2 multiple wells were set for each concentration, and a final concentration of DMSO was […].
1) An enzyme solution was prepared in 1×test buffer.
2) Ubiquitin Rhodamine 110 protein, CF (UB-Rho), was added into 1×determination buffer to prepare a substrate solution.
3) 10 μL of enzyme solution and 1×reaction buffer were transferred to a 384-well plate, and
4) incubated at room temperature for 15 minutes.
5) 10 μL of substrate solution was added into each well to start the reaction, centrifuged for 30 seconds, and shaken for 30 seconds.
1) Plate reading was carried out on SpectraMax Paradigm for 30 minutes, with an excitation wavelength of 480 nm and an emission wavelength of 540 nm.
2) Data on SpectraMax Paradigm were collected.
An inhibition (% inh) was calculated by the following formula:
[formula] • wherein, Max represented: a luminous signal intensity of a positive control well without adding the compound; • Min represented: a luminous signal intensity of a negative control well without adding the enzyme; and • Signal represented: a luminous signal intensity of the compound of the test sample.
IC50 was Calculated by the Following Formula:
[formula] • wherein, Y represented: % inhibition; and • X represented: the concentration of the compound.

[2] = parameters: species or system mice; conditions: mouse, in vivo, iv, 5 mg/kg
Description: Experiment Example 4 Pharmacokinetic Experiment of Compounds of the Present Disclosure 1. Test compounds: the compounds in the examples of the present disclosure, prepared according to the examples in the specification of the present disclosure. [table] (1) Intravenous administration (iv): 2.54 mg of compound 11 was taken, added with 0.495 ml of DMSO solution to be dissolved by vortex and ultrasound, added with 0.495 ml of PEG400 to be mixed by vortex, and then added with 1.484 ml of 28% HP-β-CD to be mixed by vortex to obtain a clear solution, with a concentration of 1 mg/ml. (2) Oral administration (po): 3.33 mg of compound 11 was taken, added with 3.243 ml of solvent (2% HPC+0.1% Tween 80), and ground evenly to obtain a uniform suspension, with a concentration of 1 mg/ml. The test compounds were administered intravenously (iv), with an administration dosage of 5 mg/kg and an administration volume of 5 ml/kg. The test compounds were administered orally (po), with an administration dosage of 10 mg/kg and an administration volume of 10 ml/kg. […] LC-MS/MS was to be analyzed.

[3] = test system: MDA-MB-436 cells; test: First in-vitro cytological inhibitory activity experiment (CelltiterGlo assay); format: cell-based, human; conditions: Experimental Example 2, 4,000 cells/well, 7 days, read-out: In-vitro cytological activities, IC50, MDA-MB-436
Description: Experimental Example 2 First Experiment of in-vitro Cytological Inhibitory Activities of Compounds of the Present Disclosure
A cell line used in the following experiment was as follows: MDA-MB-436: human breast cancer cells.
Experimental method (CelltiterGlo assay)
All cells were adherent cells, the medium was DMEM+10% FBS+1% ITS-G+16 μg/ml glutathione, and the cells were tested in a logarithmic growth phase.
Cells in the logarithmic growth phase were collected and counted by a […]. The cell viability was detected by a trypan blue exclusion method, and the cell viability was kept over 90%. The cell concentration was adjusted to be in a proper range, and 90 μL of cell suspension was added into a 96-well plate respectively.
2.1 DMSO stock solutions of the test compounds were prepared, and concentrations of the stock solutions of the test compounds were 10 mM respectively.
The stock solutions of the test compounds were serially diluted from 10 mM with DMSO in a 3-fold gradient for a total of 8 concentrations. Then, 2 µL of DMSO-gradient diluted compounds were respectively added into 198 µL of culture solutions to give the working stock solutions of the test compounds (a compound concentration was 10-fold higher than the final concentration, and a maximum concentration was […]).
10 μL of compound working stock solution was added into each well in the 96-well plate inoculated with cells (10-fold dilution, a final DMSO concentration was 0.1%).
Solvent control: 0.1% DMSO. […]
A CTG reagent was thawed and the 96-well plate was equilibrated to room temperature for 30 minutes, 60 μL of reagent (Celititer Glo assay kit) was added into each well, shaking was carried out for 2 minutes with a shaker (in the absence of light), and the plate was incubated at room temperature for 20 minutes (in the absence of light). Light signal values were read on a multi-functional microplate reader.
1) inhibition (%)=(DMSO solvent control well reading−test compound well reading)/(DMSO solvent control well reading−blank control well reading)×100%; […]

SMILES: COc1ncnc(C2CC2)c1-c1nc2c3c(nn(Cc4ccc(-c5nc(C(F)(F)F)cn5C)cc4)c3n1)CCCC2 [Compound 11, 4-(4-cyclopropyl-6-methoxypyrimidine-5-yl)-2-(4-(1-methyl-4-(trifluoromethyl)-1H-imidazol-2-yl)benzyl)-6,7,8,9-tetrahydro-2H-1,2,3,5-tetraazabenzo[cd]pyrene]
- IC50 [1]: 22 nM
- exposure [2]: more than 6,000 h*ng/ml
- IC50 [3]: 101 nM
